Results taken from patent publication US9296778B2, “3′,5′-cyclic phosphate prodrugs for HCV infection” (Idenix Pharmaceuticals, Inc., priority 2012, dated 2016).

What was measured:
[1] = system: HCV genotype 1b replicon; assay: HCV Replicon Assay; type: cell-based; conditions: Zluc cells (Huh-7-derived, HCV genotype 1b replicon, luciferase reporter), 72 hours; read-out: HCV Replicon EC50
Experimental: Huh-7-derived cell line (Zluc) that harbors an HCV genotype 1b replicon and a luciferase reporter gene was grown in Dulbecco's Modified Eagle Medium (DMEM) supplemented with 10% fetal bovine serum, 2 mM GlutaMAX, 1% MEM nonessential amino acids, 100 IU/mL penicillin, 100 μg/mL streptomycin, and 0.5 mg/mL Geneticin® (G418). For dose response testing the cells were seeded in 96-well plates at 7.5×10^3 cells per well in a volume of 50 μL, and incubated at 37° C./5% CO2. Drug solutions were made up freshly in Huh-7 media as 2× stocks. Ten additional 5-fold dilutions were prepared from these stocks in DMEM without G418. At least three hours after Zluc cells were seeded, drug treatment was initiated by adding 50 μL of drug dilutions to the plates in duplicate. Final concentrations of drug ranged from 100 μM to […]. Cells were then incubated at 37° C./5% CO2. Alternatively, compounds were tested at two concentrations (1 μM and 10 μM). […] For this, media was removed from the plates via gentle tapping. Fifty microliters of ONE-glo luciferase assay reagent was added to each well. The plates were shaken gently for 3 min at room temperature and luminescence was measured on a Victor^3 V 1420 multilabel counter (Perkin Elmer) with a 1 second read time using a 700 nm cut-off filter. The EC50 values were calculated from dose response curves from the resulting best-fit equations determined by Microsoft Excel and XLfit 4.1 software. When screening at two fixed concentrations, the results were expressed as % inhibition at 1 μM and 10 μM.

[2] = Stability in simulated intestinal fluid; type: in vitro ADME; conditions: 100 μM, 2 hours at 37° C., percent of the peak area at time zero
Experimental: Simulated gastric and intestinal fluids containing pepsin and pancreatin respectively were prepared according to the U.S. Pharmacopoeia USP291 procedure (www.pharmacopeia.cn/v29240/usp29nf24s0_ris1s126.html). Compounds (final concentration 100 μM) were incubated in duplicate in the appropriate fluid for 2 hours at 37° C. The samples were quenched with 200 μl cold acetonitrile, vortexed for 30 seconds and then centrifuged at 16,100 g for 10 min. The supernatants were analyzed by HPLC on a C-18 column with UV detection at 252 nm. The time 0 samples were prepared by adding SGF or SIF fluid to the quenching solvent followed by the test compound. Stability of the compounds was determined by peak area of the test compounds after incubation and calculated as percent of the peak area observed at time zero.

[3] = Stability in fresh human whole blood; type: in vitro ADME; conditions: 0.5 μM, percent unchanged test compound
Experimental: (§1) Stability of compounds were determined in fresh human whole blood with K2EDTA as the anticoagulant (stored refrigerated at 2-8° C. and used within 7 days of receipt). The experiment was conducted with three replicates for each time point. Whole blood, pre-incubated at 37° C. for 10-15 minutes, was fortified with a solution of test compound for a final concentration of 0.5 μM and mixed for 30 sec. At intervals (0, 0.5, 1 and 2 hr), three 50 μL aliquots were combined with 200 μL (each) of an ice-cold solution of the internal standard (carbutamide 500 ng/mL in acetonitrile). The samples were vortexed for 30 sec and then centrifuged at 16,100 g for 5 min. The supernatant was analyzed by LC-MS/MS. The MS peak area ratio of the test compounds versus the internal standard was calculated and percent unchanged test compound was calculated for each time point using this ratio.

[4] = Stability in mouse blood; type: in vitro ADME; conditions: on ice, percent unchanged test compound
Experimental: as §1
The stability in mouse blood was determined on ice at 0, 0.5 and 1 hr as herein.

[5] = system: Zluc cells; assay: cytotoxicity evaluation (CellTiter-Blue Cell Viability Assay); conditions: read-out: HCV Replicon CC50; Zluc cells, CellTiter-Blue
[6] = system: mouse hepatocytes; assay: Release of active metabolite in mouse hepatocytes; type: in vitro ADME; conditions: 10 μM compound; for MsH AUC: mouse hepatocytes, 1, 4, 8, 12 and 24 hours
Experimental: (§2) Plates of fresh human and mouse hepatocytes were obtained on ice. The medium was removed and replaced with hepatocyte culture medium (William's E supplemented with penicillin-streptomycin, 1% L-glutamine, 1% insulin-transferrin-selenium and 0.1 μM Dexamethasone (Invitrogen) or with Invitro GRO HI medium complemented with Torpedo antibiotics (Celsis)). Cells were left overnight in an incubator at 37° C. to acclimatize to culture and the medium.
(§3) Hepatocyte incubations were conducted at a final volume of 0.5 mL hepatocyte culture medium/well (0.8 million cells/well for human and 0.5 million cells/well for mouse; 12 well plate no overlay, collagen coat). Culture medium from overnight incubation of cells was removed and replaced with fresh medium, pre-warmed to 37° C., containing 10 μM of test compound from a stock solution in DMSO (final DMSO concentration was 0.1%). At each specific time point, incubation medium was removed and cell monolayers were carefully washed two times with ice-cold PBS. Following the last wash, all PBS was carefully removed and 1.0 mL of extraction solution (ice-cold 70% methanol/30% water) added. Cells were scraped off and suspended in the extraction solution, transferred to 2 mL polypropylene microfuge tubes and intracellular contents extracted overnight at −20° C.
(§4) After the overnight treatment the cellular extracts were prepared by centrifugation at 16,000×g for 10 min to remove cellular debris. The remaining sample was then dried using a refrigerated centrivap concentrator. Dry extracts were reconstituted in 1000 μL of HPLC-grade water and centrifuged at 16,000×g for 10 min. Aliquots (100 μL each) of the supernatant were transferred into a 96 well plate and internal standard (4 ng/mL final concentration) was added as the internal standard (IS) for LC-MS/MS analysis.
(§5) The incubation time points were 6, 24 and 48 hours for human hepatocytes and 1, 4, 8, 12 and 24 hours for mouse hepatocytes.

[7] = Plasma pharmacokinetics following a single oral dose in CD-1 mice; type: in vivo; conditions: single oral dose 25 mg/kg in PEG 200, CD-1 male mice, given at 1 μmol/kg
Experimental: (§6) A single oral dose of test compound at 25 mg/kg in PEG 200 (dose volume 5 mL/kg) was administered to nine CD-1 male mice. Five untreated animals were used for the collection of control plasma and liver. Terminal plasma and liver samples were collected from three animals per time point at 4, 12 and 24 hours post dose. Liver specimens were collected from all animals immediately after the incision. Freezing forceps stored in liquid nitrogen were used to freeze the liver before excision.
Plasma samples were analyzed for 2′-methylguanosine (2′-MeG) by LC-MS/MS. The internal standard (IS) was 2′-MeG-D3. For protein precipitation and extraction, each plasma sample (50 μL) was treated with 500 μL of 0.2% formic acid in acetonitrile and 20 μL of the internal standard working solution. After vortexing and centrifugation, 500 μL of the sample extracts were transferred to a new plate, dried under N2 at ˜28° C. and reconstituted with 75 μL of 0.2% FA in water. The extracts were chromatographed on an Aquasil C18 column using a gradient system of 0.2% formic acid in water and acetonitrile. The analytes were detected and quantified by tandem mass spectrometry in positive ion mode on an MDS Sciex API5000 equipped with a Turbo Ionspray® interface. The calibration range was 0.500 (LLOQ) to 200 ng/mL in mouse plasma.

[8] = Liver pharmacokinetics following a single oral dose in CD-1 mice; type: in vivo; conditions: single oral dose 25 mg/kg in PEG 200, CD-1 male mice, given at 1 μmol/kg
Experimental: as §6
Liver samples were analyzed for the active species 2′-methylguanosine triphosphate (2′-MeGTP) by LC-MS/MS. 2′-MeGTP levels were assayed by homogenizing (on ice) a known weight of mouse liver with 4× volume of 0.95 M trichloroacetic acid (TCA). Internal standard solution was added to the homogenate followed by neutralization with 20% ammonium hydroxide solution and addition of 500 μL 1% formic acid. The tissue samples were extracted by weak anion exchange solid phase extraction (SPE). Post extraction, the eluates were evaporated under nitrogen, followed by reconstitution before injection onto the LC-MS/MS system. The samples were chromatographed on a Luna NH2 column using a gradient system of ammonium acetate (1 mM to 20 mM and pH 8.0 to pH 10.0) in water and acetonitrile (70:30). The analyte was detected and quantified by tandem mass spectrometry in positive ion mode on an API4000 equipped with a Turbo Ionspray® interface. The calibration range was 10 to 10000 pmol/mL in mouse liver homogenate (50 to 50000 pmol/g of mouse liver).

[9] = system: fresh human hepatocytes; assay: Release of active metabolite in fresh human hepatocytes; type: in vitro ADME; conditions: 10 μM compound; for FHH TP Cmax: fresh human hepatocytes; for FHH TP AUC: fresh human hepatocytes, 6, 24 and 48 hours
Experimental: as §2, §3, §4, §5

SMILES | EC50 [1] [µM] | Stability SIF [2] [%] | Stability WB_Human (37° C.; 2 hr) [3] [%] | Stability WB_Mouse (ice; 1 hr) [4] [%] | CC50 [5] [µM] | MsH AUC [6] | Ms Plasma 2′-MeG AUC ([7]; 25 mg/kg) [pmol · hr/mL at 1 μmol/kg] | Ms Plasma 2′-MeG Cmax ([7]; 25 mg/kg) [pmol/mL at 1 μmol/kg] | Ms Liver 2′-MeGTP AUC ([8]; 25 mg/kg) [pmol · hr/g at 1 μmol/kg] | FHH TP Cmax [9] | FHH TP AUC [9] | MsH Cmax ([6]; mouse hepatocytes) [pmol/mill cells] | Ms Plasma 2′-MeG AUC [7] [pmol · hr/mL at 1 μmol/kg] | Ms Plasma 2′-MeG Cmax [7] [pmol/mL at 1 μmol/kg] | Ms Liver 2′-MeGTP AUC [8] [pmol · hr/g at 1 μmol/kg]
CCOc1nc(N)nc2c1ncn2[C@@H]1O[C@@H]2COP(=O)(OCCCC(=O)OC(C)C)O[C@H]2[C@@]1(C)F (single isomer, unassigned; diastereomer 1) [Compound 3 Diastereomer 1] | < 0.25 | 92 | 20.5 | 14 | < 50 | – | – | – | – | – | – | – | – | – | –
CC(C)OC(=O)CCCOP1(=O)OC[C@H]2O[C@@H](n3cnc4c(=O)[nH]c(N)nc43)[C@](C)(F)[C@@H]2O1 (single isomer, unassigned; diastereomer 1) [Compound 6 Diastereomer 1] | 1 to 10 | – | – | – | > 50 | BLD^a | 13 | 1.3 | 35 | – | – | – | – | – | –
CCOC(=O)CCOP1(=O)OC[C@H]2O[C@@H](n3cnc4c(OCC)nc(N)nc43)[C@](C)(F)[C@@H]2O1 (single isomer, unassigned; diastereomer 1) [Compound 8 Diastereomer 1] | < 0.25 | 96 | 89 | – | > 50 | – | – | – | – | BLD^a | BLD^a | – | – | – | –
CCOc1nc(N)nc2c1ncn2C1OC2COP(=O)(OCC(NC(=O)OC)C(=O)OC(C)C)OC2C1(C)O (single isomer, unassigned; diastereomer 1) [Compound 14 Diastereomer 1] | < 0.25 | 88 | 62 | – | < 50 | – | – | – | – | 19 pmol/mill cells | 224 pmol · hr/mill cells | – | – | – | –
CCOc1nc(N)nc2c1ncn2[C@@H]1O[C@@H]2COP(=O)(OCCC(=O)OC(C)C)O[C@H]2[C@@]1(C)F (single isomer, unassigned; diastereomer 1) [Compound 21 Diastereomer 1] | – | 91 | 86 | – | – | BLD^a | – | – | – | BLD^a | BLD^a | – | – | – | –
CCOc1nc(N)nc2c1ncn2[C@@H]1O[C@@H]2COP(=O)(OCCCC(=O)OC(C)C)O[C@H]2[C@@]1(C)F (single isomer, unassigned; diastereomer 2) [Compound 3 Diastereomer 2] | – | – | – | – | – | 3265 pmol · hr/mill cells | – | – | – | 146 pmol/mill cells | 4574 pmol · hr/mill cells | 91 | 160 | 17 | 3200
CC(C)OC(=O)CCCOP1(=O)OC[C@H]2O[C@@H](n3cnc4c(=O)[nH]c(N)nc43)[C@](C)(F)[C@@H]2O1 (single isomer, unassigned; diastereomer 2) [Compound 6 Diastereomer 2] | < 0.25 | – | – | – | > 50 | BLD^a | 54 | 7.2 | 530 | – | – | – | – | – | –
CCOC(=O)CCOP1(=O)OC[C@H]2O[C@@H](n3cnc4c(OCC)nc(N)nc43)[C@](C)(F)[C@@H]2O1 (single isomer, unassigned; diastereomer 2) [Compound 8 Diastereomer 2] | < 0.25 | 94 | 34 | – | > 50 | – | – | – | – | BLD^a | BLD^a | – | – | – | –
CCOc1nc(N)nc2c1ncn2C1OC2COP(=O)(Oc3ccc(CC(NC(=O)OC)C(=O)OC(C)C)cc3)OC2C1(C)F (single isomer, unassigned; diastereomer 2) [Compound 13 Diastereomer 2] | < 0.25 | 72 | 70 | 1 | > 50 | – | – | – | – | 34 pmol/mill cells | 812 pmol · hr/mill cells | – | – | – | –
CCOc1nc(N)nc2c1ncn2[C@@H]1O[C@@H]2COP(=O)(OCCC(=O)OC(C)C)O[C@H]2[C@@]1(C)O (single isomer, unassigned; diastereomer 2) [Compound 22 Diastereomer 2] | < 0.25 | 101 | 88 | – | > 50 | BLD^a | – | – | – | 28 pmol/mill cells | 742 pmol · hr/mill cells | – | – | – | –
